Laboratory results: PMC4287843 (ACS Chemical Biology, 2014)
Strand notation (5' to 3'): a small letter for the sugar, then the base; units joined by * are phosphorothioate-linked, units joined directly phosphodiester-linked; [ ] holds rarer units or linkages, { } end groups; capitals alone tell only the bases. m = 2'-O-methyl

Tests used:
[1] = tested on: SMN2 mini-gene splicing in COS7 cells expressing r(CGG)60X; assay: SMN2 alternative pre-mRNA splicing in FXTAS cell culture model; format: cell-based
r(CGG) repeats = conditions: cited from earlier work
r(CGG)12-DGCR8Δ complex = conditions: read-out: IC50 for disrupting binding of DGCR8Δ; in vitro; cited from earlier work
DGCR8Δ [2] = target: T1, DGCR8Δ (UniProt Q8WYQ5 493-720); assay: EMSA
T1 sequence: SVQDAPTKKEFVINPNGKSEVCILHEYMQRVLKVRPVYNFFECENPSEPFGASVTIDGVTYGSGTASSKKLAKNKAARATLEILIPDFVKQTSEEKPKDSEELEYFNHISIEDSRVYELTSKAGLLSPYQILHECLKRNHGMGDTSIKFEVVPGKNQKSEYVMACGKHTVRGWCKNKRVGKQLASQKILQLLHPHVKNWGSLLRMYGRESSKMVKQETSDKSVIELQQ

DGCR8Δ [3] = target: T1, DGCR8Δ; assay: TR-FRET

Molecule: 2’OMe-PS-(CUGCGCGUAUUAGUCUACAAGUAAGGGCU-ACGACCU) (mC*mU*mG*mC*mG*mC*mG*mU*mA*mU*mU*mA*mG*mU*mC*mU*mA*mC*mA*mA*mG*mU*mA*mA*mG*mG*mG*mC*mU*mA*mC*mG*mA*mC*mC*mU) [scrambled oligonucleotide]
- effect on SMN2 splicing defect ([1]; 100 and 500 nM oligo (not 4 or 20 nM)): exacerbates splicing defects

Molecule: Cc1c2cc[n+](CCN3CCCCC3)cc2c(C)c2c1[nH]c1ccc(O)cc12 [1a, 9-hydroxy-5,11-dimethyl-2-(2-(piperidin-1-yl)ethyl)-6H-pyrido[4,3-b]carbazol-2-ium]
- fold less potent than 2H-5 for improving pre-mRNA splicing defects [1]: ~10 fold
- Kd (r(CGG) repeats): 0.076 ± 0.004 µM
- IC50 (r(CGG)12-DGCR8Δ complex): 13 ± 0.4 µM

Molecule: CCGCCGCCGCCGCCGCCGCCGCCGCCGCCGCCGCCG (ssDNA) [d(CCG)12]
- binding result (DGCR8Δ [2]): no binding

Molecule: CCGCCGCCGCCGCCGCCGCCGCCG (ssDNA) [d(CCG)8]
- binding result (DGCR8Δ [2]): no binding

Molecule: CGGCGGCGGCGGCGGCGGCGGCGGCGGCGGCGGCGG (structured_RNA) [r(CGG)12]
- binding result (DGCR8Δ [3]): binds
